The assay concerns the target T1, human CMR-1 (Homo sapiens, UniProt Q7Z2W7).
T1 construct: expressed in transfected cells
Kind of assay: Measurement of the menthol-induced Ca2+ influx in HEK293 cells expressing CMR-1 receptor (Assay 1). The format is cell-based. The note with it: HEK293 cells stably expressing human CMR-1; preincubation with compound, menthol stimulation; fluo4-AM fluorescence. From the text:
Measurement of the Menthol-Induced Ca^2+ Influx in […] Cell Expressing CMR-1 Receptor (Assay 1).
A cell-based calcium influx assay using HEK293 cells stably expressing human CMR-1 is used to identify CMR-1 receptor-antagonists. Menthol, a CMR-1 specific agonist, is used for stimulation of these cells, inducing an increase in intracellular calcium. This menthol-induced Ca^2+ increase is traced by fluorescence measurement. Therefore the cells are loaded with fluo4-AM prior to stimulation. For testing inhibitors the cells are preincubated with various concentrations of the compound before menthol stimulation. The potency of potential CMR-1 inhibitors is quantified by measuring decrease of fluorescence.

Structures can show the parent of a compound that is named as a salt.

T1 sequence (Q7Z2W7 whole entry): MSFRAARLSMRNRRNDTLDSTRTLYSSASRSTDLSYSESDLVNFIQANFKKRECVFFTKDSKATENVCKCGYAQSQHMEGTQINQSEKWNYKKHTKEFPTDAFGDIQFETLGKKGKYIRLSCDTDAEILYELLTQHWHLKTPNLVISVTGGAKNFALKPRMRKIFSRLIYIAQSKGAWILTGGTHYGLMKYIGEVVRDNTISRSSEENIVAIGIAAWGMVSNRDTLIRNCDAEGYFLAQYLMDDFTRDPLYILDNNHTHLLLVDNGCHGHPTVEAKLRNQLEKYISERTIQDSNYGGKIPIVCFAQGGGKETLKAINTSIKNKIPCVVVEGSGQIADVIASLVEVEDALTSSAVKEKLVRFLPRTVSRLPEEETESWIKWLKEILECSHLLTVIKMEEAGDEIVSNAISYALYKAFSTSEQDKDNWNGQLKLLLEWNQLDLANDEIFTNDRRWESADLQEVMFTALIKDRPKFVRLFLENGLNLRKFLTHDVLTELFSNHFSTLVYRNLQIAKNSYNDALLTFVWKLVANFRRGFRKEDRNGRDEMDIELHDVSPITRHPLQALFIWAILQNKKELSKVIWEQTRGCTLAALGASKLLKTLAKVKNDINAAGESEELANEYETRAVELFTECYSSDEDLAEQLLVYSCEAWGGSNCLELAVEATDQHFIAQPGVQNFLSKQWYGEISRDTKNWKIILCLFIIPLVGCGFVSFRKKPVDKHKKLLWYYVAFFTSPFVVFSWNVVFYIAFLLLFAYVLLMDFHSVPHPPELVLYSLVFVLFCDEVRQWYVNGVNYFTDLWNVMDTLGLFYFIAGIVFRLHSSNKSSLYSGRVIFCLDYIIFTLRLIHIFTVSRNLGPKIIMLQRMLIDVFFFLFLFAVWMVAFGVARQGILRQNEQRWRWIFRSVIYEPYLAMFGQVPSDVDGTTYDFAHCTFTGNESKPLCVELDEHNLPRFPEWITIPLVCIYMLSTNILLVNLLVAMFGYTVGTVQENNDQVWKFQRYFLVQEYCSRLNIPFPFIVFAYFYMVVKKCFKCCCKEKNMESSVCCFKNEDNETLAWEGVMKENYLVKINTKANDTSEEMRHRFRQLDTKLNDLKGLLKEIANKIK

For `COc1cc(CN(CCN)C(=O)c2cccs2)ccc1OCc1ccccc1` [Example 3-1, N-(2-aminoethyl)-N-[4-(benzyloxy)-3-methoxybenzyl]thiophene-2-carboxamide hydrochloride], the IC50 was 1 nM.

As for `COc1cc(CN(CCN)C(=O)c2ccccc2)ccc1OCc1ccccc1` [Example 4-1, N-(2-aminoethyl)-N-[4-(benzyloxy)-3-methoxybenzyl]benzamide trifluoroacetate], the 50% inhibitory concentration (IC50) stood at 150 nM.

For `COc1cc(CN(CCCNC(=O)OC(C)(C)C)C(=O)c2cccs2)ccc1OCc1ccc(F)cc1` [Example 10], the concentration for half-maximal inhibition (IC50) turned out to be 70 nM.

With `COc1cc(CN(CCN)C(=O)c2cccs2)ccc1OCc1ccccc1F` [Example 17, N-(2-aminoethyl)-N-{4-[(2-fluorobenzyl)oxy]-3-methoxybenzyl}thiophene-2-carboxamide trifluoroacetate], the IC50 was determined as 1 nM.

For the molecule `COc1cc(CN(CCN)C(=O)CC(C)(C)C)ccc1OCc1ccc(F)cc1F` [Example 20], the IC50 was 8 nM.

In the case of `COc1cc(CN(Cc2ccccc2)C(=O)c2ccccc2)ccc1OCc1ccc(F)cc1` [Example 38, N-benzyl-N-{4-[(4-fluorobenzyl)oxy]-3-methoxybenzyl}benzamide], the IC50 stood at 40 nM.

What is called IC50 is the concentration that gives 50% inhibition.

These data come from patent US20080214654A1, “Substituted Benzyloxy-Phenylmethylamide Derivatives” (Bayer HealthCare AG, priority 2004, published 2008).
